Publication PMC6534253, “Stereoselective pharmacokinetic and pharmacodynamic analysis of a CNS-active sulphamoylphenyl carbamate derivative” (Journal of Enzyme Inhibition and Medicinal Chemistry, 2019)

Tests used:
[1] = Pharmacokinetics from plasma levels after i.p. administration to rats; format: in vivo, rat; settings: for Vd/F: read-out: Vss/F
Experimental: (§1) The pharmacokinetics (PK) of racemic-MSPC and its two individual enantiomers were studied following i.p. (80 mg/kg) to rats and their major PK parameters were estimated.
(§2) The study details were as described previously[8] and plasma and brain levels of racemic-MSPC and it individual enantiomers were monitored at: 20, 40, 60, 90, 120, 160, 180, 200, 220, 260, 320, and 360 min after dosing.
(§3) Plasma and brain concentrations of each compound were quantified by an HPLC assay. The HPLC analysis was performed on a system (2695 Separation Module; Waters, Milford, MA) with a photodiode array UV detector (2996 PDA Detector; Waters, Milford, MA). Conditioned as follows: Kinetex, 5 u EVO C18 100 A, 150*4.6 mm column (Phenomenex®, Torrance, CA). Linear gradients (5–95% acetonitrile content) with H2O (0.1% formic acid) and acetonitrile were used as the eluents with flow rate of 1 ml/min at 20 °C. The compounds and the internal standard were detected at 250 nm. Plasma and brain concentrations of MSPC and its two individual enantiomers were quantified by assay that its extraction method was previously described.
(§4) The PK parameters of each compound were calculated by non-compartmental analysis based on statistical moment theory using the PK software Phoenix Winnonlin Tripos L.P. (Pharsight Co., Mountain View, CA) as previously described. MSPC amount excreted unchanged in the urine was calculated by multiplying its urine concertino by the excreted urine volume for up to 6 h after dosing.

[2] = Pharmacokinetics from brain levels after i.p. administration to rats; format: in vivo, rat; settings: for AUCbrain: as used in the BPR calculation; for Vd/F: read-out: Vss/F
Experimental: as §1, §2, §3, §4

[3] = test system: maximal electroshock seizure (MES); test: Rat maximal electroshock (MES) anticonvulsant test; format: in vivo
Description: The experiments at the MES model were done in male Sprague-Dawley rats (8 rats per dose) weighing 100−120 g (Charles River Laboratories, Wilmington, MA) as previously described.

hCA I = hCA I (Homo sapiens, UniProt P00915); test: Stopped flow CO2 hydrase assay, hCA I; format: biochemical; settings: for Ki: mean from three assays, stopped flow technique
Sequence of hCA I (P00915 whole entry): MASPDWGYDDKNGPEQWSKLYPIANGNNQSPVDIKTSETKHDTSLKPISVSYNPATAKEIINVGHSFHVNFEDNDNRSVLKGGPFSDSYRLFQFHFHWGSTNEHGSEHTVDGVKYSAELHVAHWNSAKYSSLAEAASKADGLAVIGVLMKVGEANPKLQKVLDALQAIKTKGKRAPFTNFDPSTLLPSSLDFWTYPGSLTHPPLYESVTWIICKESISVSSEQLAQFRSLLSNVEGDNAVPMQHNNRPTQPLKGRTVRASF
Experimental: (§5) The CA inhibition of MSPC and its individual enantiomers were assessed by a stopped flow CO2 hydrase assay as previously described.

hCA II = hCA II (Homo sapiens, UniProt P00918); test: Stopped flow CO2 hydrase assay, hCA II; format: biochemical; settings: for Ki: mean from three assays, stopped flow technique
Experimental: as §5

hCA IV = hCA IV (Homo sapiens, UniProt P22748); test: Stopped flow CO2 hydrase assay, hCA IV; format: biochemical; settings: mean from three assays, stopped flow technique
Sequence of hCA IV (P22748 19-312): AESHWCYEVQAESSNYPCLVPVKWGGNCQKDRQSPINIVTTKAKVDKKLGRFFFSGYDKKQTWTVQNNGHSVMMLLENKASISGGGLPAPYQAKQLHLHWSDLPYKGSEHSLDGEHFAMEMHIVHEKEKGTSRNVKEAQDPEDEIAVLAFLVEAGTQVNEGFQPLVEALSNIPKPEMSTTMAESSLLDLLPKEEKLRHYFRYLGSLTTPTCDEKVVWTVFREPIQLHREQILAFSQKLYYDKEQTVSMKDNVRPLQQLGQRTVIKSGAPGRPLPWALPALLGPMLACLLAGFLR
Experimental: as §5

hCA VII = hCA VII (Homo sapiens, UniProt P43166); test: Stopped flow CO2 hydrase assay, hCA VII; format: biochemical; settings: mean from three assays, stopped flow technique
Sequence of hCA VII (P43166 whole entry): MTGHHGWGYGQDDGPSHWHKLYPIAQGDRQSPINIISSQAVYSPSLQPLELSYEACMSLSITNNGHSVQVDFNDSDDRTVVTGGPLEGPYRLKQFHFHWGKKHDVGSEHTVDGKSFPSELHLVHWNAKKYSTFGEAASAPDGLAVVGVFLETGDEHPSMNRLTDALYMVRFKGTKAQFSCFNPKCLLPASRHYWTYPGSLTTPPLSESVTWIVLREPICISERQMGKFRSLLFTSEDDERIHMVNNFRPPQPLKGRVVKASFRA
Experimental: as §5

[4] = Amount excreted unchanged in urine; format: in vivo, rat; settings: urine up to 6 h after dosing
Experimental: MSPC urine concentrations were quantified by the same HPLC assay as its plasma assay.
as §4

Water solubility = format: physicochemical
[5] = test system: maximal electroshock seizure (MES); parameters: method as in PMID 28275953; settings: cited from earlier work
[6] = plasma, i.p. 80 mg/kg, mean, listed as (R)-enantiomer, 80 mg/kg
[7] = brain, rats, i.p. 80 mg/kg, mean, listed as (R)-enantiomer, 80 mg/kg
[8] = rat, ip, plasma, i.p. 80 mg/kg, mean
[9] = rat, plasma, ip, 80 mg/kg, as used in the BPR calculation, i.p. 80 mg/kg, read-out: AUCplasma
[10] = rat, plasma, ip, 80 mg/kg, plasma, i.p. 80 mg/kg, mean, read-out: AUC
[11] = rat, ip, brain, rats, i.p. 80 mg/kg, mean
[12] = brain, rats, i.p. 80 mg/kg, mean, listed as (S)-enantiomer, 80 mg/kg

For CC[C@@H](C)CCOC(=O)Nc1ccc(S(N)(=O)=O)cc1 [(R)-MSPC, 3-methylpentyl(4-sulphamoylphenyl)carbamate], the higher clearance ([1]; compared to (S)-MSPC and racemic-MSPC) was 29%, the “plasma exposure compared to (S)-MSPC” value ([1]; i.p. 80 mg/kg) was 78% and the AUC [1, 6] was 23 mg/L/h. The CL/F [1, 6] was 15 mL/min/kg, the Cmax [1, 6] was 10000 ng/mL and the Tmax [1, 6] was 1.0 h. The Vss/F [1, 6] was 3.2 l/kg^−1, the t1/2 [1, 6] was 2.5 h and the “brain-to-plasma-(AUC)-ratio (BPR)” value ([2]; AUCbrain/AUCplasma, rats, i.p. 80 mg/kg, listed as (R)-enantiomer, 80 mg/kg) was 2.07. For the same molecule, the AUC [2, 7] was 47 mg/L/h, the CL/F [2, 7] was 6.7 mL/min/kg and the Cmax [2, 7] was 16000 ng/mL. The Tmax [2, 7] was 1.0 h, the Vss/F [2, 7] was 1.4 l/kg^−1 and the t1/2 [2, 7] was 2.3 h. For the same molecule, the “times higher BPR than its enantiomer” value ([2]; versus (S)-MSPC) was 2.6, the “rat-MES (po)-ED50” value [3] was 30 mg/kg and the Ki (hCA I) was 34.1 nM. For the same molecule, the “times more effective inhibitor than (S)-MSPC against hCA I” value (hCA I; ratio of Ki versus (S)-MSPC) was 3.8, the Ki (hCA II) was 3.3 nM and the “times more effective inhibitor than (S)-MSPC against hCA II” value (hCA II; ratio of Ki versus (S)-MSPC) was 6.1. For the same molecule, the Ki (hCA IV) was 810 nM and the Ki (hCA VII) was 170 nM.

CCC(C)CCOC(=O)Nc1ccc(S(N)(=O)=O)cc1 (racemic) [MSPC (racemate), 3-Methylpentyl(4-sulphamoylphenyl)carbamate] gave a half-life [1, 8] of 2.1 h, a CL/F ([1]; rat, ip, plasma, i.p. 80 mg/kg, mean, read-out: CL/F (converted)) of 11.7 mL/min/kg and a Cmax ([1]; rat, ip, plasma, i.p. 80 mg/kg, mean, read-out: Cmax) of 10000 ng/mL. For the same molecule, the Vd/F [1, 8] was 2.2 L/kg, the Tmax ([1]; rat, ip, plasma, i.p. 80 mg/kg, mean, read-out: tmax) was 1.3 h and the AUC [1, 9] was 28500 ng·h/mL. The AUC [1, 10] was 29000 ng·h/mL, the AUCbrain ([2]; rats, i.p. 80 mg/kg) was 52.8 and the Kp ([2]; rat, brain, ip, AUCbrain/AUCplasma, rats, i.p. 80 mg/kg, read-out: brain-to-plasma-(AUC)-ratio (BPR)) was 1.85. The half-life [2, 11] was 1.9 h, the AUC ([2]; rat, ip, brain, rats, i.p. 80 mg/kg, mean, read-out: AUC) was 53000 ng·h/mL and the CL/F ([2]; rat, ip, brain, rats, i.p. 80 mg/kg, mean, read-out: CL/F (converted)) was 6.67 mL/min/kg. The Cmax ([2]; rat, ip, brain, rats, i.p. 80 mg/kg, mean, read-out: Cmax) was 18000 ng/mL, the Vd/F [2, 11] was 1 L/kg and the Tmax ([2]; rat, ip, brain, rats, i.p. 80 mg/kg, mean, read-out: tmax) was 1.6 h. The “dose excreted unchanged in urine” value [4] was “Less than 0.1%”, the Ki (hCA I) was 77 nM and the Ki (hCA II) was 7.6 nM. The Ki (hCA IV) was 750 nM, the Ki (hCA VII) was 351 nM and the water solubility (Water solubility) was “low water solubility”. The “rat-MES-ED50 (i.p.)” value ([5]; i.p.) was 13 mg/kg and the “rat-MES-ED50 (po)” value ([5]; po) was 28 mg/kg.

Molecule CC[C@H](C)CCOC(=O)Nc1ccc(S(N)(=O)=O)cc1 [(S)-MSPC, 3-methylpentyl(4-sulphamoylphenyl)carbamate] has an AUC [1, 9] of 29000 ng·h/mL, a half-life ([1]; rat, plasma, ip, 80 mg/kg, i.p. 80 mg/kg, mean) of 2.3 h and an AUC [1, 10] of 29000 ng·h/mL. It also gave a CL/F ([1]; rat, plasma, ip, 80 mg/kg, plasma, i.p. 80 mg/kg, mean, read-out: CL/F (converted)) of 11.7 mL/min/kg, a Cmax ([1]; rat, plasma, ip, 80 mg/kg, plasma, i.p. 80 mg/kg, mean, read-out: Cmax) of 7600 ng/mL and a Vd/F ([1]; rat, plasma, ip, 80 mg/kg, plasma, i.p. 80 mg/kg, mean) of 2.3 L/kg. For the same molecule, the Tmax ([1]; rat, plasma, ip, 80 mg/kg, plasma, i.p. 80 mg/kg, mean, read-out: tmax) was 1.3 h, the “brain-to-plasma-(AUC)-ratio (BPR)” value ([2]; AUCbrain/AUCplasma, rats, i.p. 80 mg/kg, listed as (S)-enantiomer, 80 mg/kg) was 0.79 and the AUCbrain ([2]; rats, i.p. 80 mg/kg, listed as (S)−enantiomer, 80 mg/kg) was 22.8. The AUC [2, 12] was 23 mg/L/h, the CL/F [2, 12] was 15 mL/min/kg and the Cmax [2, 12] was 7000 ng/mL. The Vd/F ([2]; rat, brain, ip, 80 mg/kg, brain, rats, i.p. 80 mg/kg, mean) was 2.2 L/kg, the Tmax ([2]; rat, brain, ip, 80 mg/kg, brain, rats, i.p. 80 mg/kg, mean, read-out: tmax) was 0.6 h and the half-life ([2]; rat, brain, ip, 80 mg/kg, rats, i.p. 80 mg/kg, mean) was 1.7 h. For the same molecule, the ED50 ([3]; Rattus norvegicus, po) was 24 mg/kg, the Ki (hCA I) was 130 nM and the Ki (hCA II) was 20.3 nM. It also gave a Ki (hCA IV) of 593 nM and a Ki (hCA VII) of 744 nM.
